Laboratory results reported in US10577395B2 (priority 2014, dated 2020).
Converted amounts (≈) assume the structure as drawn. Like-named read-outs stand apart in the source and are kept apart here.

Columns and labels:
[1] = tested on: Enterococcus faecium (VanA VRE, ATCC BAA-2317); experiment: Antimicrobial assay, MIC, VanA E. faecium; assay type: cell-based; settings: Enterococcus faecium
Description: (§1) Assays were carried out following the methods of Clinical and Laboratory Standards Institute; Methods for Dilution Antimicrobial Susceptibility Tests for Bacteria That Grow Aerobically; Approved Standard, […].; CLSI document M07-A8; Clinical and Laboratory Standards Institute: Wayne, Pa., 2009.
(§2) This diluted bacterial stock solution was then inoculated into a well of a V-shaped 96-well glass coated microtiter plate, supplemented with serial diluted aliquots of the antibiotic solution DMSO (4 μL), to achieve a total assay volume of 0.1 mL. The plate was then incubated at 37° C. for 18 hours, after which minimal inhibitory concentrations (MICs) were determined by monitoring the cell growth (observed as a pellet) in the wells. The lowest concentration of antibiotic (in μg/mL) capable of eliminating the cell growth in the wells is reported as the MIC.

[2] = tested on: vancomycin-resistant Enterococcus faecalis (VanB VRE, strain ATCC 51299); experiment: microbe, parasite or virus in culture; assay type: cell-based; settings: Enterococcus faecalis
Description: as §1, §2

[3] = tested on: vancomycin-resistant Enterococcus faecalis (VanA VRE, BM4166); experiment: microbe, parasite or virus in culture; assay type: cell-based; settings: Enterococcus faecalis, VRE
Description: as §1, §2

[4] = tested on: vancomycin-sensitive Staphylococcus aureus (VSSA strain ATCC 25923); experiment: Antimicrobial assay, MIC, vancomycin-sensitive S. aureus; assay type: cell-based; settings: Staphylococcus aureus, ATCC 25923
Description: as §1, §2

[5] = tested on: methicillin and oxacillin-resistant Staphylococcus aureus subsp. aureus (MRSA strain ATCC 43300); experiment: Antimicrobial assay, MIC, MRSA; assay type: cell-based; settings: Staphylococcus aureus
Description: as §1, §2

[6] = tested on: panel of Gram-positive bacteria (VSSA, MRSA, VanA and VanB VRE); experiment: Antimicrobial assay, MIC across the bacterial panel; assay type: cell-based, S. aureus, E. faecalis, E. faecium; settings: Staphylococcus aureus, read-out: MICs across the bacterial panel, vancomycin-sensitive and vancomycin-resistant strains
Description: as §1, §2

[7] = read-out: MIC, VanB E. faecalis
[8] = read-out: MIC, VanA E. faecalis
[9] = ATCC25923, read-out: MIC, sensitive S. aureus
[10] = read-out: MIC, Van A E. faecium, serum concentration 10%
[11] = read-out: MIC, Van A E. faecium, serum concentration 25%
[12] = read-out: MIC, Van A E. faecium, serum concentration 100%
[13] = read-out: MIC, Van A E. faecalis, serum concentration 10%
[14] = read-out: MIC, Van A E. faecalis, serum concentration 25%
[15] = read-out: MIC, Van A E. faecalis, serum concentration 100%

Structure (SMILES)	MIC ([1]; read-out: MIC, VanA E. faecium)	MIC [2, 7]	MIC [3, 8]	MIC [4, 9]	MIC ([5]; read-out: MIC, MRSA S. aureus)	MIC [1, 10]	MIC [1, 11]	MIC [1, 12]	MIC [3, 13]	MIC [3, 14]	MIC [3, 15]	also measured
CN[C@H](CC(C)C)C(=O)N[C@H]1C(=O)N[C@@H](CC(N)=O)C(=O)N[C@H]2C(=S)NC3C(=O)N[C@H](C(=O)N[C@H](CO)c4cc(O)cc(O)c4-c4cc3ccc4O)[C@H](O)c3ccc(c(Cl)c3)Oc3cc2cc(c3OC2OC(CO)C(O)[C@H](O)[C@@H]2O[C@H]2CC(C)(NCc3ccc(-c4ccc(Cl)cc4)cc3)[C@H](O)[C@H](C)O2)Oc2ccc(cc2Cl)[C@H]1O (some centres unmarked) [Compound 27]	4 µg/mL (≈ 2.42 µM)	4 µg/mL (≈ 2.42 µM)	8 µg/mL (≈ 4.84 µM)	4 µg/mL (≈ 2.42 µM)	8 µg/mL (≈ 4.84 µM)							
CN[C@H](CC(C)C)C(=O)N[C@H]1C(=O)N[C@@H](CC(N)=O)C(=O)N[C@H]2C(=O)NC3C(=O)N[C@H](C(=O)N[C@H](CO)c4cc(O)cc(O)c4-c4cc3ccc4O)[C@H](O)c3ccc(c(Cl)c3)Oc3cc2cc(c3OC2OC(CO)C(O)[C@H](O)[C@@H]2O[C@H]2CC(C)(NCc3ccc(-c4ccc(Cl)cc4)cc3)[C@H](O)[C@H](C)O2)Oc2ccc(cc2Cl)[C@H]1O (some centres unmarked) [Compound 26]	4 µg/mL (≈ 2.45 µM)	0.13 µg/mL (≈ 0.0795 µM)	2 µg/mL (≈ 1.22 µM)	0.03 µg/mL (≈ 0.0183 µM)	0.03 µg/mL (≈ 0.0183 µM)							
CN[C@H](CC(C)C)C(=O)N[C@H]1C(=O)N[C@@H](CC(N)=O)C(=O)N[C@H]2C(=S)NC3C(=O)N[C@H](C(=O)N[C@H](C(=O)O)c4cc(O)cc(O)c4-c4cc3ccc4O)[C@H](O)c3ccc(c(Cl)c3)Oc3cc2cc(c3OC2OC(CO)C(O)[C@H](O)[C@@H]2O[C@H]2CC(C)(N)[C@H](O)[C@H](C)O2)Oc2ccc(cc2Cl)[C@H]1O (some centres unmarked) [Compound 2, [Ψ[C(═S)NH]Tpg^4]vancomycin]	> 32 µg/mL	> 32 µg/mL	> 32 µg/mL	> 32 µg/mL	> 32 µg/mL	> 32 µg/mL	> 32 µg/mL	> 32 µg/mL	> 32 µg/mL	> 32 µg/mL	> 32 µg/mL	MIC ([2]; read-out: MIC, Van B E. faecalis, serum concentration 10%): > 32 µg/mL; MIC ([2]; read-out: MIC, Van B E. faecalis, serum concentration 25%): > 32 µg/mL; MIC ([2]; read-out: MIC, Van B E. faecalis, serum concentration 100%): > 32 µg/mL; MIC ([4]; ATCC25923, read-out: MIC, sensitive S. aureus, serum concentration 10%, 10%): > 32 µg/mL; MIC ([4]; ATCC25923, read-out: MIC, sensitive S. aureus, serum concentration 100%, 100%): > 32 µg/mL; MIC ([4]; ATCC25923, 25%, read-out: MIC, sensitive S. aureus, serum concentration 25%): > 32 µg/mL; MIC [6]: > 32 µg/mL; MIC ([5]; read-out: MIC, MRSA S. aureus, serum concentration 10%): > 32 µg/mL; MIC ([5]; read-out: MIC, MRSA S. aureus, serum concentration 25%): > 32 µg/mL; MIC ([5]; read-out: MIC, MRSA S. aureus, serum concentration 100%): > 32 µg/mL
CN[C@H](CC(C)C)C(=O)N[C@H]1C(=O)N[C@@H](CC(N)=O)C(=O)N[C@H]2CNC3C(=O)N[C@H](C(=O)N[C@H](C(=O)O)c4cc(O)cc(O)c4-c4cc3ccc4O)[C@H](O)c3ccc(c(Cl)c3)Oc3cc2cc(c3OC2OC(CO)C(O)[C@H](O)[C@@H]2O[C@H]2CC(C)(N)[C@H](O)[C@H](C)O2)Oc2ccc(cc2Cl)[C@H]1O (some centres unmarked) [Compound 16, [Ψ[CH2NH]Tpg^4]vancomycin]	31 µg/mL (≈ 21.6 µM)		31 µg/mL (≈ 21.6 µM)			31 µg/mL (≈ 21.6 µM)	62 µg/mL (≈ 43.2 µM)	125 µg/mL (≈ 87.1 µM)	31 µg/mL (≈ 21.6 µM)	62 µg/mL (≈ 43.2 µM)	125 µg/mL (≈ 87.1 µM)	
CN[C@H](CC(C)C)C(=O)N[C@H]1C(=O)N[C@@H](CC(N)=O)C(=O)N[C@H]2C(=N)NC3C(=O)N[C@H](C(=O)N[C@H](CO)c4cc(O)cc(O)c4-c4cc3ccc4O)[C@H](O)c3ccc(c(Cl)c3)Oc3cc2cc(c3OC2OC(CO)C(O)[C@H](O)[C@@H]2O[C@H]2CC(C)(N)[C@H](O)[C@H](C)O2)Oc2ccc(cc2Cl)[C@H]1O (some centres unmarked) [Compound 25]	2 µg/mL (≈ 1.39 µM)		2 µg/mL (≈ 1.39 µM)									
